The results in this text go back to ChEMBL document CHEMBL1145843 (J Med Chem, 2003).

The nature of experiment [1]: Inhibitory concentration of compound for inhibiting hematin polymerization. It counts as functional.
Experiment [2] deals with Plasmodium falciparum. The experiment in a line: Growth inhibition against Plasmodium falciparum K1; Not active <= 3000nM. It counts as functional, organism-based.
The subject of experiment [3] is Plasmodium falciparum. In words: Growth inhibition against Plasmodium falciparum NF54; Not active <= 3000nM. It counts as functional, organism-based.
A short description of experiment [4]: Hematin binding affinity of compound was determined as a measure of inhibiting hematin polymerization.

Active and inactive are the calls of the source. Some results are limits rather than exact numbers.

A word on the IC50: it is the concentration that gives 50% inhibition. The low end stands for higher potency, the high end for lower potency. Regarding `CCN(CC)CCCC(C)Nc1cccc2cc(Cl)ccc12` (configuration not stated), in experiment [1], the IC50 was greater than 2500 µM. Also, the NI result with Plasmodium falciparum [2] and with Plasmodium falciparum [3] was “inactive” each time.
`CCN(CC)CCCC(C)Cc1ccnc2cc(Cl)ccc12` (configuration not stated): the IC50 in experiment [1] came out at 1500 µM. Besides, the Ka in experiment [4] was found to be 84000 M⁻¹. Further, the NI result in the experiment with Plasmodium falciparum [2] and in the experiment with Plasmodium falciparum [3] was “inactive” in each case.
